Experimental data as given in patent US11684614B2, “Formulations of hydroxypyridonate actinide/lanthanide decorporation agents” (priority 2017, dated 2023).
Where “and” joins values, the source holds several entries; their conditions need not be identical. Equal entries are not always repeated.

Assay: Repeated-treatment efficacy for removing an intravenous dose of 238Pu (excretion, tissue retention, clinical observations), female and male arms
Format: in vivo, Swiss-Webster mice
Details: for tissue content of 238Pu compared to saline control group: all analyzed tissues, all dosing regimens; for % Recovered Dose - Feces per Day: group H
Description: The objective of this study was to characterize the efficacy of 3,4,3-L1(1,2-HOPO) at enhancing elimination from an internal plutonium burden in female and male Swiss-Webster mice administered a soluble citrate complex of ^238Pu and treated multiple times, starting at 24 hours after the exposure. Efficacy was evaluated by comparing the tissue contents, urinary and fecal excretions of ^238Pu in treated animals versus untreated animals.
The medical countermeasure 3,4,3-L1(1,2-HOPO) was administered parenterally (ip) or orally (po) via consecutive injections or gavages (six daily or twelve twice daily) starting at 24 hours post contamination at the following four selected doses: 30 μmol/kg ip, 150 μmol/kg po, 300 μmol/kg po, and 600 μmol/kg po (equivalent to respective approximate human doses range of […], using the accepted conversion system of mouse doses into human equivalent doses—HED—based on body surface area). Oral doses also included the permeability enhancer selected during formulation development work.
• Challenge isotope: ^238Pu • Challenge dose: 25 nCi (i.e., approximately 0.8 μCi/kg) • Route of contamination: Intravenous (iv) tail-vein • Route of treatment: Intraperitoneal Injection (ip) or Oral (po) • Frequency of treatment: Multiple (once- or twice-daily for 6 days) doses, starting 24 hr postcontamination • Treatment dose calculation: Dose calculations (mg/kg or μmol/kg) for the decorporation agent were based on the individual body weight measured after contamination. • Study Duration: 11 days, in-life
c. […] Test article and control dose formulations were prepared within 1 day of dose administration, by weighing out the appropriate amount of test article, dispersing in vehicle. For ip solutions, the test article was used alone, while for oral suspensions, a mixture of test article and excipient (90:10, w:w) was used. The pH was adjusted to 7.0-7.4 for ip administration and 5.0-5.5 for oral administration with sterile NaOH. Dose formulations were prepared at room temperature and filter-sterilized. • Storage: 2-8° C.; refrigerated; protected from light. • Characterization: The concentration of each test article formulation was verified by high-performance liquid chromatography-mass spectrometry. • Test Article Handling: Test, reference, and control article formulations were handled with the use of eye protection, gloves, and a protective laboratory coat. • Correct Dose Assurance: The test article was weighed with calibrated balances. The administration of each dose formulation was properly documented, and the amount administered to each animal recorded.
e. Experimental Procedures (In-Life Evaluations and Euthanasia) • Contamination: Single administration by intravenous (iv) tail-vein injection (0.2 mL injection volume) under isoflurane anesthesia. Three standard 0.2 mL injections were performed into polyethylene bottles and pre-loaded with aliquots of concentrated nitric acid on each injection day. Six female and six male mice were culled for necropsy 1 hr post-contamination and were used as standards. A11 standards were processed and counted together with the final samples to allow verification of the contamination dose. • Dose Administration: Single administration by intraperitoneal injection (ip) or oral gavage (po) under isoflurane anesthesia. • Mortality/Morbidity: Assessed at least once daily. • Clinical Observations: Recorded once daily (4 hr post-dose on day of treatment), or more often as clinical signs warranted. […]

[1] = female mice, 30 μmol/kg, IP, 11-day necropsy
[2] = female mice, 30 μmol/kg, IP, 11-day necropsy, over untreated control group
[3] = female mice, 30 μmol/kg, IP, 11-day necropsy, vs untreated control group
[4] = male animals, Day-11 necropsy, animal group H
[5] = male arm table, Day 11 necropsy, animal group H
[6] = male mice, 30 μmol/kg, IP, 11-day necropsy
[7] = male mice, 30 μmol/kg, IP, 11-day necropsy, over untreated control group
[8] = male mice, 30 μmol/kg, IP, 11-day necropsy, vs untreated control group

Compound: O=C(O)CN(CCN(CC(=O)O)CC(=O)O)CCN(CC(=O)O)CC(=O)O [DTPA, diethylenetriaminepentaacetic acid, reference compound]
- 238Pu excretion path (female and male mice): through urine
- ^238Pu excretion, Total Excretion, Avg [1]: 72.13 percent recovered dose
- ^238Pu excretion, Total Feces, Avg [1]: 30.20 percent recovered dose
- ^238Pu excretion, Total Urine, Avg [1]: 41.93 percent recovered dose
- ^238Pu retention, GI Tract, Avg [1]: 0.54 percent recovered dose
- ^238Pu retention, Kidney, Avg [1]: 0.13 percent recovered dose
- ^238Pu retention, Liver, Avg [1]: 4.14 percent recovered dose
- ^238Pu retention, Soft Tissue, Avg [1]: 1.66 percent recovered dose
- ^238Pu retention, Total Body, Avg [1]: 27.87 percent recovered dose
- ^238Pu retention, Total Bone, Avg [1]: 21.40 percent recovered dose
- ^238Pu percent increase in excretion, Total Excretion [2]: 143.34%
- ^238Pu percent increase in excretion, Total Feces [2]: 106.02%
- ^238Pu percent increase in excretion, Total Urine [2]: 192.03%
- ^238Pu percent tissue reduction, GI Tract [3]: 59.99%
- ^238Pu percent tissue reduction, Kidney [3]: 51.24%
- ^238Pu percent tissue reduction, Liver [3]: 65.62%
- ^238Pu percent tissue reduction, Soft Tissue [3]: 41.56%
- ^238Pu percent tissue reduction, Total Body [3]: 43.90%
- ^238Pu percent tissue reduction, Total Bone [3]: 35.51%
- tissue content of 238Pu compared to saline control group (female): large reductions
- % Recovered Dose Combined Body [4]: 31.58% and 24.29% and 33.79% and 30.93% and 32.00% and 29.03% and 23.14% and 27.41%
- % Recovered Dose Combined Excreta [4]: 68.42% and 74.71% and 66.21% and 69.07% and 68.00% and 70.97% and 76.86% and 72.59%
- % Recovered Dose GI Tract [4]: 1.75% and 0.46% and 0.91% and 0.70% and 0.71% and 0.57% and 0.52% and 0.47%
- % Recovered Dose Kidney [4]: 0.14% and 0.28% and 0.20% and 0.21% and 0.11% and 0.15% and 0.17%
- % Recovered Dose Liver [4]: 5.98% and 3.55% and 5.50% and 4.81% and 4.85% and 4.26% and 4.33% and 4.96%
- % Recovered Dose Soft Tissue [4]: 2.40% and 1.47% and 2.34% and 2.95% and 2.10% and 1.91% and 1.81% and 1.44%
- % Recovered Dose Total Bone [4]: 21.31% and 18.54% and 24.85% and 22.27% and 24.22% and 22.15% and 16.34% and 20.37%
- % Recovered Dose Urine per Day, Day 2 [5]: 7.92% and 8.51% and 7.65% and 2.69% and 6.20% and 7.54% and 5.46% and 8.58%
- % Recovered Dose Urine per Day, Day 3 [5]: 3.90% and 4.79% and 4.05% and 2.57% and 3.66% and 4.86% and 4.80% and 5.85%
- % Recovered Dose Urine per Day, Day 4 [5]: 3.05% and 3.34% and 2.72% and 0.84% and 2.10% and 3.61% and 2.55% and 2.58%
- % Recovered Dose Urine per Day, Day 5 [5]: 1.94% and 1.91% and 2.47% and 1.16% and 1.62% and 3.01% and 2.10% and 2.23%
- % Recovered Dose Urine per Day, Day 6 [5]: 1.36% and 1.21% and 1.73% and 0.80% and 1.18% and 1.69% and 1.57% and 1.37%
- % Recovered Dose Urine per Day, Day 7 [5]: 1.74% and 1.68% and 1.50% and 1.67% and 1.63% and 1.84% and 1.87% and 1.77%
- % Recovered Dose Urine per Day, Day 8 [5]: 0.96% and 0.76% and 0.90% and 0.53% and 0.64% and 0.85% and 1.18% and 0.65%
- % Recovered Dose Urine per Day, Day 9 [5]: 0.92% and 0.50% and 1.01% and 0.62% and 0.49% and 0.72% and 0.87% and 0.69%
- % Recovered Dose Urine per Day, Day 10 [5]: 0.35% and 0.32% and 0.27% and 0.21% and 0.49% and 0.38%
- % Recovered Dose Urine per Day, Day 11 [5]: 0.20% and 0.84% and 0.25% and 0.28% and 0.33% and 0.44% and 0.55% and 0.31%
- % Recovered Dose - Feces per Day (male mice, feces day 2, Day 11 necropsy): 2.78% and 4.90% and 1.40% and 7.06% and 3.40% and 6.60% and 7.14% and 5.64%
- % Recovered Dose - Feces per Day (male mice, feces day 3, Day 11 necropsy): 3.63% and 6.69% and 4.80% and 10.31% and 4.70% and 6.91% and 8.25% and 7.45%
- % Recovered Dose - Feces per Day (male mice, feces day 4, Day 11 necropsy): 3.78% and 4.47% and 3.18% and 7.97% and 3.38% and 4.66% and 5.75% and 4.65%
- % Recovered Dose - Feces per Day (male mice, feces day 5, Day 11 necropsy): 1.51% and 1.78% and 1.71% and 3.62% and 1.81% and 1.45% and 2.38% and 1.92%
- % Recovered Dose - Feces per Day (male mice, feces day 6, Day 11 necropsy): 1.64% and 2.00% and 2.45% and 2.79% and 1.57% and 1.96% and 1.83% and 1.74%
- % Recovered Dose - Feces per Day (male mice, feces day 7, Day 11 necropsy): 1.05% and 1.04% and 1.03% and 2.05% and 1.28% and 0.78% and 1.36% and 3.81%
- % Recovered Dose - Feces per Day (male mice, feces day 8, Day 11 necropsy): 0.81% and 0.75% and 1.29% and 1.70% and 0.85% and 0.78% and 1.19% and 1.40%
- % Recovered Dose - Feces per Day (male mice, feces day 9, Day 11 necropsy): 0.43% and 0.51% and 0.65% and 1.29% and 0.58% and 0.39% and 0.64% and 0.87%
- % Recovered Dose - Feces per Day (male mice, feces day 10, Day 11 necropsy): 0.38% and 0.40% and 0.33% and 0.79% and 0.42% and 0.30% and 0.52% and 0.68%
- % Recovered Dose - Feces per Day (male mice, feces day 11, Day 11 necropsy): 0.37% and 0.35% and 0.40% and 0.78% and 0.36% and 0.30% and 0.52% and 0.77%
- ^238Pu excretion, Total Excretion, Avg [6]: 70.98 percent recovered dose
- ^238Pu excretion, Total Feces, Avg [6]: 35.89 percent recovered dose
- ^238Pu excretion, Total Urine, Avg [6]: 35.09 percent recovered dose
- ^238Pu retention, GI Tract, Avg [6]: 0.76 percent recovered dose
- ^238Pu retention, Kidney, Avg [6]: 0.17 percent recovered dose
- ^238Pu retention, Liver, Avg [6]: 4.78 percent recovered dose
- ^238Pu retention, Soft Tissue, Avg [6]: 2.05 percent recovered dose
- ^238Pu retention, Total Body, Avg [6]: 29.02 percent recovered dose
- ^238Pu retention, Total Bone, Avg [6]: 21.26 percent recovered dose
- 238Pu percent increase in excretion, Total Excretion [7]: 149.50%
- 238Pu percent increase in excretion, Total Feces [7]: 140.57%
- 238Pu percent increase in excretion, Total Urine [7]: 159.88%
- ^238Pu percent tissue reduction, GI Trace [8]: 61.32%
- ^238Pu percent tissue reduction, Kidney [8]: 47.89%
- ^238Pu percent tissue reduction, Liver [8]: 71.51%
- ^238Pu percent tissue reduction, Soft Tissue [8]: 42.09%
- ^238Pu percent tissue reduction, Total Body [8]: 44.74%
- ^238Pu percent tissue reduction, Total Bone [8]: 28.92%
- tissue content of 238Pu compared to saline control group (male): large reductions
